These results are taken from patent US4826844A, “Substituted 1-(aralkyl-piperazinoalkyl) cycloalkanols” (American Home Products Corporation, priority 1987, dated 1989).

The structures appear in SMILES notation. pIC50, pKi: −log10 of the molar value.

In one assay the target is T1, 5-HT1A receptor (Rattus norvegicus, UniProt P19327).
T1 construct: from tissue; host or cells: rat hippocampus
T1 sequence (P19327 1-422): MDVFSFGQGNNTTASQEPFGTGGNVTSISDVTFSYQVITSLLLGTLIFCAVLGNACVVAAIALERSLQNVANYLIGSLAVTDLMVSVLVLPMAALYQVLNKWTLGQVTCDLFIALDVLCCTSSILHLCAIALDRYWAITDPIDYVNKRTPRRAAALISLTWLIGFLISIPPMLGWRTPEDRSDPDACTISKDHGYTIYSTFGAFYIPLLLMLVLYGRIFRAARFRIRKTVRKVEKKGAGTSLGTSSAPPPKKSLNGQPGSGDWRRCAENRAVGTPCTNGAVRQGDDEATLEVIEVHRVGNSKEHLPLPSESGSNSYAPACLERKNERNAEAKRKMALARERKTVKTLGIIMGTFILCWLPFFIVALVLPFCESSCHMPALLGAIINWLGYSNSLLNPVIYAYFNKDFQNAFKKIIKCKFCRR
Kind of assay: inhibition of [3H] 8-hydroxy-2-(di-n-propylamino)tetralin binding at 5-HT1A receptor sites. The conditions noted are these: rat hippocampal tissue.

The target of a further assay is T2, dopamine D2 receptors (Rattus norvegicus, UniProt P61169).
T2 construct: found in homogenized limbic brain tissue; from tissue; host or cells: homogenized limbic brain tissue
Kind of assay: inhibition of 3H-haloperidol binding at dopamine D2 receptors in homogenized limbic brain tissue. The conditions noted are these: for inhibition at 1 µM: read-out: Receptor Binding D2 % Inhibition at 1 μM.

Assay [1] concerns synaptosomial uptake of serotonin. Kind of assay: inhibition of synaptosomial uptake of serotonin (14C-5-HT). The note with it: synaptosomes. It is filed as biochemical. From the text:
(§1) The pharmacological test data obtained for a representative number of compounds of this invention in accordance with the standard experimental test procedures disclosed above appear in the following table: […]

Assay [2] relates to synaptosomial uptake of norepinephrine. As to the kind of experiment: inhibition of synaptosomial uptake of norepinephrine (3H-NE). The format is biochemical. The conditions noted are these: for pIC50 / Neuronal Uptake NE % Inhibition at 10 μM: synaptosomes; for pIC50: read-out: Neuronal Uptake NE IC50.
Text: as §1

T2 sequence (P61169 whole entry): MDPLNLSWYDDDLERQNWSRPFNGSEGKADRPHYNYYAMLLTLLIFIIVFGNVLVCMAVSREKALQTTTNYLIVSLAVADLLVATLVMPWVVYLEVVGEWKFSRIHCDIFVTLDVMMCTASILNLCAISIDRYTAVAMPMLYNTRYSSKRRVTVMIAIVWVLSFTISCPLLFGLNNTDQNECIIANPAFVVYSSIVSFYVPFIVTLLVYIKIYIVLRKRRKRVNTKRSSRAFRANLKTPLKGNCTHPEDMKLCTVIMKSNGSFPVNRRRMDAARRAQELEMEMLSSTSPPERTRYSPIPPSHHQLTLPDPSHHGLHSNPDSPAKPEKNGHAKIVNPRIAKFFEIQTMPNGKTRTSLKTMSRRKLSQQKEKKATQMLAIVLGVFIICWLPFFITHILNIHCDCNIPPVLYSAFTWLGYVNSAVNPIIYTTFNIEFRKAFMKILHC
Text for 5-HT1A receptor: 8-hydroxy-2-(di-n-propylamino)tetralin binding at 5-HT binding sites in rat hippocampal tissue, following the procedure of Hall et al., J. Neurochem., 44 1685 (1985).
Text for dopamine D2 receptors: The actual percentage reduction of ^3 H-haloperidol binding is reported infra and the larger the number, the greater the potential for dopamine D2 receptor binding and antipsychotic activity.

Consider `COc1ccc(C(CCN2CCN(Cc3cccc(Cl)c3)CC2)C2(O)CCCCC2)cc1` (stereo not drawn) [Example 12, 1-[3-[4-[(3-Chlorophenyl)methyl]-1-piperazinyl]-1-(4-methoxyphenyl)propyl]cyclohexanol], for which the inhibition at 1 µM on 5-HT1A receptor worked out at 100%; at dopamine D2 receptors (3H-haloperidol), 95%.

On to `COc1cccc(C(CCN2CCN(Cc3ccccc3)CC2)C2(O)CCCCC2)c1` (stereo not drawn) [Example 1, 1-[1-(3-Methoxyphenyl)-3-[4-(phenylmethyl)-1-piperazinyl]propyl]cyclohexanol], for which the pIC50 is 6.41 in assay [1] (read-out: Neuronal Uptake 5HT IC50) and 5.69 in assay [2]. In addition, the pKi at 5-HT1A receptor is 8.00; at dopamine D2 receptors (3H-haloperidol, read-out: Receptor Binding D2 Ki), 6.68. In addition, the “affinity at 5-HT1A receptor binding sites (in words)” value on 5-HT1A receptor is on record as “strong affinity at 5-HT1A receptor binding sites”.

As to `COc1cccc(C(CCN2CCN(Cc3cccc(Cl)c3)CC2)C2(O)CCCCC2)c1` (stereo not drawn) [Example 4, 1-[3-[4-[(3-Chlorophenyl)methyl]-1-piperazinyl]-1-(3-methoxyphenyl)propyl]cyclohexanol], the inhibition at 1 µM at 5-HT1A receptor was determined as 66%; on dopamine D2 receptors (3H-haloperidol) it was 90%. Besides, on dopamine D2 receptors, the “dopamine D2 receptor affinity / binding potential (in words)” value was “typical D2 binding potential”.

Regarding `CN1CCN(CC(c2cccc(Cl)c2)C2(O)CCCCC2)CC1` (stereo not drawn) [Example 26, 1-[1-(3-Chlorophenyl)-2-(4-methyl-1-piperazinyl)ethyl]cyclohexanol], the “Neuronal Uptake 5HT % Inhibition at 10 μM” value in assay [1] stood at 33%. Also, the inhibition at 1 µM amounted to 0% at 5-HT1A receptor and 26% on dopamine D2 receptors (3H-haloperidol). Moreover, the “antidepressant activity by inhibition of synaptosomial uptake of norepinephrine and/or serotonin (in words)” value in assay [2] was “selective antidepressant activity”. In addition, the negative-log IC50 (pIC50) in assay [2] was 6.74.

Consider `COc1ccc(C(CCN2CCN(Cc3ccc(C(F)(F)F)cc3)CC2)C2(O)CCCCC2)cc1` (stereo not drawn) [Example 14, 1-[1-(4-Methoxyphenyl)-3-[4-[[4-(trifuloromethyl)phenyl]methyl]-1-piperazinyl]propyl]cyclohexanol], for which the inhibition at 1 µM was determined as 63% on 5-HT1A receptor and 25% at dopamine D2 receptors (3H-haloperidol).

`COc1cccc(C(CCN2CCN(Cc3cccc(F)c3)CC2)C2(O)CCCCC2)c1` (stereo not drawn) [Example 7, 1-[3-[4-[(3-Fluorophenyl)methyl]-1-piperazinyl]-1-(3-methoxyphenyl)propyl]cyclohexanol]: the inhibition at 1 µM was found to be 93% on 5-HT1A receptor and 89% at dopamine D2 receptors (3H-haloperidol).

For the molecule `COc1ccc(C(CCN2CCN(Cc3cccc(OC)c3)CC2)C2(O)CCCCC2)cc1` (stereo not drawn) [Example 10], the inhibition at 1 µM on 5-HT1A receptor is 99%; at dopamine D2 receptors (3H-haloperidol) it was 73%.

`CN1CCN(CC(c2cccc(C(F)(F)F)c2)C2(O)CCCCC2)CC1` (stereo not drawn) [Example 27, 1-[2-(4-Methyl-1-piperazinyl)-1-[3-(trifluoromethyl)phenyl]ethyl]cyclohexanol]: the “Neuronal Uptake 5HT % Inhibition at 10 μM” value in assay [1] is listed as 0%. Further, the inhibition at 1 µM on 5-HT1A receptor was found to be 5%; at dopamine D2 receptors (3H-haloperidol) it was 0%. The “Neuronal Uptake NE % Inhibition at 10 μM” value in assay [2] was 86%. The “antidepressant activity by inhibition of synaptosomial uptake of norepinephrine and/or serotonin (in words)” value in assay [2] is “selective antidepressant activity”.

On to `COc1ccc(C(CCN2CCN(c3cncc(Cl)n3)CC2)C2(O)CCCCC2)cc1` (stereo not drawn) [Example 9, 1-[3-[4-(6-Chloro-2-pyrazinyl)-1-piperazinyl]-1(4-methoxyphenyl)propyl]cyclohexanol], for which the inhibition at 1 µM was 57% at 5-HT1A receptor and 15% on dopamine D2 receptors (3H-haloperidol).

Regarding `COc1cccc(C(CN2CCN(c3cccc(Cl)c3)CC2)C2(O)CCCCC2)c1` (stereo not drawn) [Example 18], the “Neuronal Uptake 5HT % Inhibition at 10 μM” value in assay [1] was determined as 62%. The inhibition at 1 µM on 5-HT1A receptor amounted to 97%; on dopamine D2 receptors (3H-haloperidol), 39%. For the same molecule, in assay [2], the “Neuronal Uptake NE % Inhibition at 10 μM” value was determined as 38%.

For the molecule `OC1(C(CN2CCN(c3cccc(Cl)c3)CC2)c2cccc(Cl)c2)CCCCC1` (stereo not drawn) [Example 19, 1-[1-(3-Chlorophenyl)-2-[4-(3-chlorophenyl)-1-piperazinyl]ethyl]cyclohexanol], the figures for the inhibition at 1 µM at 5-HT1A receptor and on dopamine D2 receptors (3H-haloperidol) were 94% and 32%, respectively.

As for `COc1ccc(C(CCN2CCN(Cc3ccccc3)CC2)C2(O)CCCCC2)cc1` (stereo not drawn) [Example 8, 1-[1-(4-Methoxyphenyl)-3-[4-(phenylmethyl)-1-piperazinyl]propyl]cyclohexanol], the “Neuronal Uptake 5HT % Inhibition at 10 μM” value in assay [1] is recorded as 67%. The inhibition at 1 µM at 5-HT1A receptor came to 99%; on dopamine D2 receptors (3H-haloperidol), 55%. In addition, in assay [2], the pIC50 was 6.21.

Consider `COc1ccc(C(CCN2CCN(Cc3cccc(C(F)(F)F)c3)CC2)C2(O)CCCCC2)cc1` (stereo not drawn) [Example 11, 1-[1-(4-Methoxyphenyl)-3-[4-[[3-(trifluoromethyl)phenyl]methyl]-1-piperazinyl]propyl]cyclohexanol], for which the inhibition at 1 µM at 5-HT1A receptor and at dopamine D2 receptors (3H-haloperidol) was 100% throughout. Besides, at dopamine D2 receptors, the “dopamine D2 receptor affinity / binding potential (in words)” value was “typical D2 binding potential”.

In turn, `COc1cccc(C(CCN2CCN(c3cncc(Cl)n3)CC2)C2(O)CCCCC2)c1` (stereo not drawn) [Example 3, 1-[3-[4-(6-Chloro-2-pyrazinyl)-1-piperazinyl]-1-(3-methoxyphenyl)propyl]cyclohexanol] had a pKi on 5-HT1A receptor of 6.91. The inhibition at 1 µM on dopamine D2 receptors (3H-haloperidol) came out at 41%.

On to `COc1ccc(C(CCN2CCN(Cc3ccccc3OC)CC2)C2(O)CCCCC2)cc1` (stereo not drawn) [Example 13], for which the inhibition at 1 µM at 5-HT1A receptor is 93%; at dopamine D2 receptors (3H-haloperidol), 77%.

Take `COc1ccc(C(CCN2CCN(c3ncccn3)CC2)C2(O)CCCCC2)cc1` (stereo not drawn) [Example 24]: at dopamine D2 receptors (3H-haloperidol), the inhibition at 1 µM is 11%.

As for `COc1cccc(C(CCN2CCN(Cc3ccc(Cl)cc3)CC2)C2(O)CCCCC2)c1` (stereo not drawn) [Example 5, 1-[3-[4-[(4-Chlorophenyl)methyl]-1-piperazinyl]-1-(3-methoxyphenyl)propyl]cyclohexanol], the inhibition at 1 µM at 5-HT1A receptor was 97%; at dopamine D2 receptors (3H-haloperidol), 51%.

Regarding `COc1cccc(C(CCN2CCN(Cc3ccccc3OC)CC2)C2(O)CCCCC2)c1` (stereo not drawn) [Example 6, 1-[1-(3-Methoxyphenyl)-3-[4-[(2-methoxyphenyl)methyl]-1-piperazinyl]propyl]cyclohexanol], the inhibition at 1 µM on 5-HT1A receptor came to 93%; on dopamine D2 receptors (3H-haloperidol), 91%.

As for `COc1cccc(C(CN2CCN(Cc3ccccc3)CC2)C2(O)CCCCC2)c1` (stereo not drawn) [Example 15, 1-[1-(3-Methoxyphenyl)-2-[4-(phenylmethyl)-1-piperazinyl]ethyl]cyclohexanol], the inhibition at 1 µM at 5-HT1A receptor came to 91%; on dopamine D2 receptors (3H-haloperidol) it was 90%.

With `COc1cccc(C(CCN2CCN(c3ncccn3)CC2)C2(O)CCCCC2)c1` (stereo not drawn) [Example 2, 1-[1-(3-Methoxyphenyl)-3-[4-(2-pyrimidinyl)-1-piperazinyl]propyl]cyclohexanol], the inhibition at 1 µM on 5-HT1A receptor was 78%; on dopamine D2 receptors (3H-haloperidol) it was 59%.
